Laboratory results published in ChEMBL document CHEMBL4000210, “Mitigation of reactive metabolite formation for a series of 3-amino-2-pyridone inhibitors of Bruton's tyrosine kinase (BTK)” (Bioorg Med Chem Lett, 2017).

system: Liver; assay: Drug metabolism in human liver microsomes assessed as covalent binding per mg protein at 10 uM in absence of NADPH measured after 30 mins by liquid scintillation counting; assay type: ADME, microsome; details: 0.5 h

Drug metabolism [pmol] | SMILES
49 | CN1CCN(c2ccc(Nc3cc(-c4cccc(-n5ncc6cc(C(C)(C)C)cc(F)c6c5=O)c4[14CH2]O)cn(C)c3=O)nc2)CC1

system: Liver; assay: Drug level in human liver microsomes treated with 6-tert-butyl-8-fluoro-2-(2-(hydroxymethyl)-3-(1-methyl-5-(5-(methylsulfonyl)pyridin-2-ylamino)-6-oxo-1,6-dihydropyridin-3-yl)phenyl)phthalazin-1(2H)-one by UPLC-MS/MS method; assay type: ADME, microsome; details: not given

Drug metabolism | SMILES
Metabolite_Detected | CN1C(=O)/C(=N/c2ccc(S(C)(=O)=O)cn2)C=C(c2cccc(-n3ncc4cc(C(C)(C)C)cc(F)c4c3=O)c2CO)C1SC[C@H](NC(=O)CC[C@H](N)C(=O)O)C(=O)NCC(=O)O (stereo not given in full)
Metabolite_Detected | CN1C(=O)/C(=N/c2ccc(S(C)(=O)=O)cn2)C=C(c2cccc(-n3ncc4cc(C(C)(C)CO)cc(F)c4c3=O)c2CO)C1SC[C@H](NC(=O)CC[C@H](N)C(=O)O)C(=O)NCC(=O)O (stereo not given in full)

system: Liver; assay: Drug metabolism in human liver microsomes assessed as covalent binding per mg protein at 10 uM preincubated for 5 mins followed by NADPH addition measured after 30 mins by liquid scintillation counting; assay type: ADME, microsome; details: 0.5 h

Drug metabolism [pmol] | SMILES
294 | Cn1cc(-c2cccc(-n3ncc4cc(C(C)(C)C)cc(F)c4c3=O)c2[14CH2]O)cc(Nc2ccc(C(=O)N3CCOCC3)cn2)c1=O
422 | Cn1cc(-c2cccc(N3CCc4cc(C(C)(C)C)ccc4C3=O)c2[14CH2]O)cc(Nc2ccc(C(=O)N3CCOCC3)cn2)c1=O
386 | Cn1cc(-c2cccc(-n3ncc4cc(C(C)(C)C)cc(F)c4c3=O)c2[14CH2]O)cc(Nc2ccc(S(C)(=O)=O)cn2)c1=O
294 | CN1CCN(c2ccc(Nc3cc(-c4cccc(-n5ccc6cc(C7CC7)cc(F)c6c5=O)c4CO)cn(C)c3=O)nc2)CC1
52 | CN(C)c1ccc2c(c1)CCN(c1cccc(-c3cc(Nc4ccc(C(=O)N5CCOCC5)cn4)c(=O)n(C)c3)c1[14CH2]O)C2=O
459 | CN1CCN(c2ccc(Nc3cc(-c4cccc(-n5ncc6cc(C(C)(C)C)cc(F)c6c5=O)c4[14CH2]O)cn(C)c3=O)nc2)CC1
26 | Cn1nc(-c2cccc(-n3ncc4cc(C(C)(C)C)cc(F)c4c3=O)c2[14CH2]O)cc(Nc2ccc(C(=O)N3CCOCC3)cn2)c1=O
